This is an account of results in BindingDB's records for doi:10.1021/jm101011y (University of Basel, 2010).

As a reminder, the IC50 is the concentration at which inhibition is half-maximal.

The nature of this experiment: Antagonist activity at Escherichia coli UT189 FimH in guinea pig red blood cells assessed as disaggregation of bacteria after 600 secs by aggregometry assay.
Turning to `COC(=O)c1ccc(-c2ccc(Cl)c(O[C@H]3O[C@H](CO)[C@@H](O)[C@H](O)[C@@H]3O)c2)cc1`, the IC50 was determined as 31 µM.
In the case of `O=C(O)c1ccc(-c2ccc(O[C@H]3O[C@H](CO)[C@@H](O)[C@H](O)[C@@H]3O)cc2)cc1` it was 45 µM; in that of `O=C(O)c1ccc(-c2cccc(O[C@H]3O[C@H](CO)[C@@H](O)[C@H](O)[C@@H]3O)c2)cc1`, 45 µM; in that of `COC(=O)c1ccc(-c2ccc(O[C@H]3O[C@H](CO)[C@@H](O)[C@H](O)[C@@H]3O)c(Cl)c2)cc1`, 9 µM.
In the case of `O=C(O)c1ccc(-c2ccc(O[C@H]3O[C@H](CO)[C@@H](O)[C@H](O)[C@@H]3O)c(Cl)c2)cc1` it was 10 µM; in that of `COC(=O)c1ccc(-c2cc(Cl)c(O[C@H]3O[C@H](CO)[C@@H](O)[C@H](O)[C@@H]3O)c(Cl)c2)cc1`, 14 µM.
In the case of `O=C(O)c1ccc(-c2ccc(O[C@H]3O[C@H](CO)[C@@H](O)[C@H](O)[C@@H]3O)cc2Cl)cc1` it was 17 µM; in that of `COC(=O)c1ccc(-c2ccc(O[C@H]3O[C@H](CO)[C@@H](O)[C@H](O)[C@@H]3O)cc2Cl)cc1`, 41 µM.
